# Results taken from publication PMC11904993, “Humanized Candida and NanoBiT Assays Expedite Discovery of Bdf1 Bromodomain Inhibitors With Antifungal Potential” (Advanced Science, 2025).
# Where “and” joins values, the source holds several entries; their conditions need not be identical. Equal values may be shown once. Read-outs that look alike come from different tables or passages of the source.
# Legend:
# Bdf1/Swc4 = molecular target: T1, Bdf1/Swc4 (Saccharomyces cerevisiae, UniProt P35817); test: NanoBiT assay, control pair; format: cell-based, S. cerevisiae; set-up: remaining activity: dose or concentration left out as unconfirmed
# T1 construct: expressed in transfected cells; host or cells: S. cerevisiae
# Experimental: Yeast strains were distributed in 96‐well microplates containing SC(MSG)‐U medium (SC‐U medium with 0.1% monosodium glutamate instead of ammonium sulfate as a nitrogen source) and grown at 30 °C. 40 µL of exponentially growing cells were transferred in white 96‐well half‐area microplates (ProxiPlate Plus, Greiner Bio‐One) previously filled with 40 µL per well of SC(MSG) containing 100 µM furimazine. The microplates were then incubated for 10 min in the dark before the luminescence signals were recorded using a microplate reader (Ensight, PerkinElmer). Luminescence measurements were performed for 1 s per well at a distance of 0.1 mm between the plate and the detector. The luminescence values were normalized with the optical density (OD600) of the corresponding cultures. For NanoBiT assays with BET inhibitors, yeast cultures were grown overnight at 30 °C in SC(MSG) medium in the presence of serial dilutions of 24c and I‐BET726. Overnight cultures were diluted 5 fold in SC(MSG) and incubated for 1 h before luminescence was recorded as previously indicated. Luminescence values for each condition were normalized using the average of the luminescence recorded for the Bdf1/Swc4 and Bmh1/Bmh2 controls.
# CaBdf1 BD2 = molecular target: T2, CaBdf1 BD2 (Candida albicans, UniProt Q5A4W8); test: HTRF assay, inhibition of H4ac4 peptide binding; set-up: species or system C. albicans
# T2 construct: BD1 (residues 193–327) and BD2 (residues 361–501) from CaBdf1 (Uniprot ID Q5A4W8); made in house; host or cells: E. coli BL21(DE3)
# C. auris Bdf1 BD2 = C. auris Bdf1 BD2 (Candidozyma auris (Candida auris), UniProt A0AAW0VEM6); test: HTRF assay, inhibition of H4ac4 peptide binding
# human Brd4 BD1 = human Brd4 BD1 (Homo sapiens, UniProt O60885); test: HTRF assay, inhibition of H4ac4 peptide binding; settings: for %HTRF Signal hBrd4 BD1: Fig 2E
# human Brd4 BD2 = molecular target: T3, human Brd4 BD2 (Homo sapiens, UniProt O60885); test: HTRF assay, inhibition of H4ac4 peptide binding; settings: for %HTRF Signal hBrd4 BD2: Fig 2E
# T3 construct: GST‐tagged BD2 (residues 349–460) from human Brd4 (UniProt ID O60885); purchased Reaction Biology Corp
# CgBdf1 BD2 = CgBdf1 BD2 (Candida glabrata, UniProt Q6FWV7); test: biochemical; format: binding, C. glabrata
# Sequence of CgBdf1 BD2 (Q6FWV7 entry or part of it): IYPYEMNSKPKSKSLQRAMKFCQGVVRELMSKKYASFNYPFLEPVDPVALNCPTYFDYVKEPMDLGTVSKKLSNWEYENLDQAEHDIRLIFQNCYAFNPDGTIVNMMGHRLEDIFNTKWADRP
# T1 sequence (P35817 whole entry): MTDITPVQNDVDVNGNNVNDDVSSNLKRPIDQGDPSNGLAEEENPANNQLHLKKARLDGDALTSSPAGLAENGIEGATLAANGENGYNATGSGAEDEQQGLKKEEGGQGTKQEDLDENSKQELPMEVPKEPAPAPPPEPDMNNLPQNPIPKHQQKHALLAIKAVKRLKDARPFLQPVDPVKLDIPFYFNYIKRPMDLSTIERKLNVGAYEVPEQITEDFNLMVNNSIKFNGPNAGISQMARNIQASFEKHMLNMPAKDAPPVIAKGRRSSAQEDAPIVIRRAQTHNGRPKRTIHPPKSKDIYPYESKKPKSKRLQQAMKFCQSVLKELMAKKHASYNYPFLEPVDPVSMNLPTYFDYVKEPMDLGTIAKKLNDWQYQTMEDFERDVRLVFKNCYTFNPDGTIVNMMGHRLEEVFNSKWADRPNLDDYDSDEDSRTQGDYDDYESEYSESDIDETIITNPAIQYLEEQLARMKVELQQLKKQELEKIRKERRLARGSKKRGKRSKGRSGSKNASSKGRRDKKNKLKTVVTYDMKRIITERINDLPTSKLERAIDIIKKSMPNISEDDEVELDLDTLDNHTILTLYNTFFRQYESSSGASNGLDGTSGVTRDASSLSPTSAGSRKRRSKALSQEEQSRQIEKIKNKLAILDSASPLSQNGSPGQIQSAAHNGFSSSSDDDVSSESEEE
# T1 sequence (P53201 whole entry, further chain): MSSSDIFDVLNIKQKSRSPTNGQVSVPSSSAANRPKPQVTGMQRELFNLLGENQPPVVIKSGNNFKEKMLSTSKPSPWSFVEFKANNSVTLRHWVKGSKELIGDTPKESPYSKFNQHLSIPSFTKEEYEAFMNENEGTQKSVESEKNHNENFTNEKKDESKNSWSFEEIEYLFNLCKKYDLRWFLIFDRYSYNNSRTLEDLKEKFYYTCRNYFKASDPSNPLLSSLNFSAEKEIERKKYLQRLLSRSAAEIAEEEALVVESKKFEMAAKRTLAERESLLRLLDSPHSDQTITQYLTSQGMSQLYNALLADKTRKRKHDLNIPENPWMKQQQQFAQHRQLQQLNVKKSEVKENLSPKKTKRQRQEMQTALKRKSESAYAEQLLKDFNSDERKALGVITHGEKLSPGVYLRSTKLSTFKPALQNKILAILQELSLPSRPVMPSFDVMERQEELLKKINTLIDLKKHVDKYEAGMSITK
# Sequence of C. auris Bdf1 BD2 (A0AAW0VEM6 entry or part of it): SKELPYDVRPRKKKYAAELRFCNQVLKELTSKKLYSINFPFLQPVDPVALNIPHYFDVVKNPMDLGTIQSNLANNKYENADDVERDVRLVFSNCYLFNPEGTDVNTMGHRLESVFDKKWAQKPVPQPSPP
# T2 sequence (Q5A4W8 361-501): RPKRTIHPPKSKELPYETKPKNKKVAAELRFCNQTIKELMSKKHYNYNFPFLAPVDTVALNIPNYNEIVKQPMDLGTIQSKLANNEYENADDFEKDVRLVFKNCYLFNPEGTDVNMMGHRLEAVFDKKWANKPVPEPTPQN
smiles,measurement,setting,value
"Cc1ccc(-c2nnc(C)c(NCc3ccc(C)o3)n2)cc1 [Compound 24c, 6‐methyl‐N‐((5‐methylfuran‐2‐yl)methyl)‐3‐(p‐tolyl)‐1,2,4‐triazin‐5‐amine]",remaining activity at 195.3 µM,"Bdf1/Swc4; Bdf1-SmBiT, Swc4-LgBiT, 0.1953 mM, Fig 4C, read-out: Normalized nanoBiT signal",93%
same,remaining activity at 390.6 µM,"Bdf1/Swc4; Bdf1-SmBiT, Swc4-LgBiT, 0.3906 mM, Fig 4C, read-out: Normalized nanoBiT signal",104%
same,remaining activity at 781.3 µM,"Bdf1/Swc4; Bdf1-SmBiT, Swc4-LgBiT, 0.7813 mM, Fig 4C, read-out: Normalized nanoBiT signal",108%
same,remaining activity at 1562.5 µM,"Bdf1/Swc4; Bdf1-SmBiT, Swc4-LgBiT, 1.5625 mM, Fig 4C, read-out: Normalized nanoBiT signal",100%
same,remaining activity at 3125 µM,"Bdf1/Swc4; Bdf1-SmBiT, Swc4-LgBiT, 3.1250 mM, Fig 4C, read-out: Normalized nanoBiT signal",101%
same,remaining activity,"Bdf1/Swc4; Bdf1-SmBiT, Swc4-LgBiT, […], Fig 4C, read-out: Normalized nanoBiT signal",96%
same,"inhibition of NanoBiT signal, Bdf1/Swc4",Bdf1/Swc4; control pair independent of Bdf1 BDs,not observed
same,remaining activity at 0.013 µM,"CaBdf1 BD2; CaBD2, 24c 0.013 microM, Exp1-2, read-out: Percent HTRF Signal",94.3%
same,remaining activity at 0.033 µM,"CaBdf1 BD2; CaBD2, 24c 0.033 microM, Exp1-2, read-out: Percent HTRF Signal",96.5%
same,remaining activity at 0.082 µM,"CaBdf1 BD2; CaBD2, 24c 0.082 microM, Exp1-2, read-out: Percent HTRF Signal",102%
same,remaining activity at 0.2 µM,"CaBdf1 BD2; CaBD2, 24c 0.20 microM, Exp1-2, read-out: Percent HTRF Signal",102%
same,remaining activity at […],"CaBdf1 BD2; CaBD2, 24c 0.51 microM, Exp1-2, read-out: Percent HTRF Signal",97.5%
same,remaining activity at 1.28 µM,"CaBdf1 BD2; CaBD2, 24c 1.28 microM, Exp1-2, read-out: Percent HTRF Signal",98.1%
same,remaining activity at 3.2 µM,"CaBdf1 BD2; CaBD2, 24c 3.20 microM, Exp1-2, read-out: Percent HTRF Signal",92.6%
same,remaining activity at 8 µM,"CaBdf1 BD2; CaBD2, 24c 8.00 microM, Exp1-2, read-out: Percent HTRF Signal",90.1%
same,remaining activity at 20 µM,"CaBdf1 BD2; CaBD2, 24c 20.00 microM, Exp1-2, read-out: Percent HTRF Signal",74.1%
same,inhibition of Bdf1 BD2 from C. albicans,"CaBdf1 BD2; HTRF, Fig S9C",weakly inhibited
same,remaining activity at 0.0021 µM,"C. auris Bdf1 BD2; CauBD2, 24c 0.0021 microM, Exp1-3, read-out: Percent HTRF Signal",100%
same,remaining activity at 0.0052 µM,"C. auris Bdf1 BD2; CauBD2, 24c 0.0052 microM, Exp1-3, read-out: Percent HTRF Signal",94.4%
same,remaining activity at 0.013 µM,"C. auris Bdf1 BD2; CauBD2, 24c 0.013 microM, Exp1-3, read-out: Percent HTRF Signal",99.2%
same,remaining activity at 0.033 µM,"C. auris Bdf1 BD2; CauBD2, 24c 0.033 microM, Exp1-3, read-out: Percent HTRF Signal",100%
same,remaining activity at 0.082 µM,"C. auris Bdf1 BD2; CauBD2, 24c 0.082 microM, Exp1-3, read-out: Percent HTRF Signal",106%
same,remaining activity at 0.2 µM,"C. auris Bdf1 BD2; CauBD2, 24c 0.20 microM, Exp1-3, read-out: Percent HTRF Signal",105%
same,remaining activity at […],"C. auris Bdf1 BD2; CauBD2, 24c 0.51 microM, Exp1-3, read-out: Percent HTRF Signal",99.5%
same,remaining activity at 1.28 µM,"C. auris Bdf1 BD2; CauBD2, 24c 1.28 microM, Exp1-3, read-out: Percent HTRF Signal",100%
same,remaining activity at 3.2 µM,"C. auris Bdf1 BD2; CauBD2, 24c 3.20 microM, Exp1-3, read-out: Percent HTRF Signal",98.7%
same,remaining activity at 8 µM,"C. auris Bdf1 BD2; CauBD2, 24c 8.00 microM, Exp1-3, read-out: Percent HTRF Signal",84%
same,remaining activity at 20 µM,"C. auris Bdf1 BD2; CauBD2, 24c 20.00 microM, Exp1-3, read-out: Percent HTRF Signal",79.1%
same,inhibition of Bdf1 BD2 from C. auris,"C. auris Bdf1 BD2; HTRF, Fig S9C",weakly inhibited
same,IC50,human Brd4 BD1,> 20 µM
same,%HTRF Signal hBrd4 BD1,human Brd4 BD1; 0.002 microM,99.94% and 101.82% and 96.40%
same,%HTRF Signal hBrd4 BD1,human Brd4 BD1; 0.005 microM,98.75% and 96.86% and 103.69%
same,%HTRF Signal hBrd4 BD1,human Brd4 BD1; 0.013 microM,99.02% and 101.98% and 101.10%
same,%HTRF Signal hBrd4 BD1,human Brd4 BD1; 0.033 microM,102.19% and 101.25% and 104.58%
same,%HTRF Signal hBrd4 BD1,human Brd4 BD1; 0.082 microM,100.31% and 103.86% and 103.22%
same,%HTRF Signal hBrd4 BD1,human Brd4 BD1; 0.205 microM,99.94% and 102.50% and 103.66%
same,%HTRF Signal hBrd4 BD1,human Brd4 BD1; 0.512 microM,100.22% and 100.80% and 103.20%
same,%HTRF Signal hBrd4 BD1,human Brd4 BD1; 1.280 microM,99.57% and 100.99% and 103.81%
same,%HTRF Signal hBrd4 BD1,human Brd4 BD1; 3.200 microM,98.88% and 63.27% and 99.81%
same,%HTRF Signal hBrd4 BD1,human Brd4 BD1; 8.000 microM,95.80% and 101.11% and 96.69%
same,%HTRF Signal hBrd4 BD1,human Brd4 BD1; 20.000 microM,84.01% and 92.12% and 87.26%
same,IC50,human Brd4 BD2,> 20 µM
same,%HTRF Signal hBrd4 BD2,human Brd4 BD2; 0.002 microM,101.87% and 97.60% and 95.93%
same,%HTRF Signal hBrd4 BD2,human Brd4 BD2; 0.005 microM,107.00% and 95.29% and 98.83%
same,%HTRF Signal hBrd4 BD2,human Brd4 BD2; 0.013 microM,110.74% and 98.44% and 97.06%
same,%HTRF Signal hBrd4 BD2,human Brd4 BD2; 0.033 microM,106.00% and 100.34% and 100.19%
same,%HTRF Signal hBrd4 BD2,human Brd4 BD2; 0.082 microM,114.59% and 102.11% and 105.40%
same,%HTRF Signal hBrd4 BD2,human Brd4 BD2; 0.205 microM,102.46% and 102.49% and 103.89%
same,%HTRF Signal hBrd4 BD2,human Brd4 BD2; 0.512 microM,110.69% and 102.99% and 100.42%
same,%HTRF Signal hBrd4 BD2,human Brd4 BD2; 1.280 microM,110.63% and 103.66% and 98.46%
same,%HTRF Signal hBrd4 BD2,human Brd4 BD2; 3.200 microM,107.03% and 99.12% and 95.88%
same,%HTRF Signal hBrd4 BD2,human Brd4 BD2; 8.000 microM,99.23% and 96.86% and 85.81%
same,%HTRF Signal hBrd4 BD2,human Brd4 BD2; 20.000 microM,80.43% and 88.19% and 83.66%
same,activity at 0.002 µM,"CgBdf1 BD2; 24 h, Fig 2E, 0.002 microM, read-out: %HTRF Signal CgBdf1 BD2",108%
same,activity at 0.005 µM,"CgBdf1 BD2; 24 h, Fig 2E, 0.005 microM, read-out: %HTRF Signal CgBdf1 BD2",102%
same,activity at 0.013 µM,"CgBdf1 BD2; 24 h, Fig 2E, 0.013 microM, read-out: %HTRF Signal CgBdf1 BD2",118%
same,activity at 0.033 µM,"CgBdf1 BD2; 24 h, Fig 2E, 0.033 microM, read-out: %HTRF Signal CgBdf1 BD2",109%
same,activity at 0.082 µM,"CgBdf1 BD2; 24 h, Fig 2E, 0.082 microM, read-out: %HTRF Signal CgBdf1 BD2",99.8%
same,activity at 0.205 µM,"CgBdf1 BD2; 24 h, Fig 2E, 0.205 microM, read-out: %HTRF Signal CgBdf1 BD2",104%
same,activity at 0.512 µM,"CgBdf1 BD2; 24 h, Fig 2E, 0.512 microM, read-out: %HTRF Signal CgBdf1 BD2",101%
same,activity at 1.28 µM,"CgBdf1 BD2; 24 h, Fig 2E, 1.280 microM, read-out: %HTRF Signal CgBdf1 BD2",93.8%
same,activity at 3.2 µM,"CgBdf1 BD2; 24 h, Fig 2E, 3.200 microM, read-out: %HTRF Signal CgBdf1 BD2",83.5%
same,activity at 8 µM,"CgBdf1 BD2; 24 h, Fig 2E, 8.000 microM, read-out: %HTRF Signal CgBdf1 BD2",60.2%
same,IC50,"CgBdf1 BD2; Fig 2C original data, analogs of 24, single experiments Exp1-3, read-out: pIC50 CgBD2 (converted)",13.9 µM and 12 µM and 9.53 µM
same,IC50,"CgBdf1 BD2; Fig 2E, mean and s.d., three independent experiments, read-out: IC50 (μM) CgBD2",11.8 µM and 12 µM
